# Test results taken from patent publication US9072698B2, “Method for screening anti-cancer compounds inhibiting function of TM4SF5 and anti-cancer composition containing chalcone compounds” (Seoul National University Industry Foundation, priority 2006, dated 2015).
# Key:
# [1] = tested on: HCT15 (colon adenocarcinoma); test: In vitro cytotoxicity, sulforhodamine B (SRB) method, HCT15; format: cell-based; settings: Homo sapiens; HCT-15, SRB method; read-out: cytotoxicity (ED50) HCT-15
# Summary of the method: (§1)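 Cells grown in RPMI 1640 with 10% FCS at 37 °C, 5% CO2 were exposed to compounds at 30, 10, 3, 1 and 0.3 μg/ml final, with DMSO below 0.5%. Cytotoxicity was read by the standard NCI sulforhodamine B protein-staining method.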
# [2] = tested on: A-549 (lung carcinoma); test: In vitro cytotoxicity, sulforhodamine B (SRB) method, A-549; format: cell-based; settings: Homo sapiens, A549; A-549, SRB method; read-out: cytotoxicity (ED50) A-549
# Summary of the method: as §1
# [3] = tested on: PC-3 (prostate adenocarcinoma); test: In vitro cytotoxicity, sulforhodamine B (SRB) method, PC-3; format: cell-based; settings: Homo sapiens; PC-3, SRB method; read-out: cytotoxicity (ED50) PC-3
# Summary of the method: as §1
# [4] = tested on: SNU449Tp cells; test: Cell growth over time of TM4SF5-expressing cells (FIG. 43, right); format: cell-based, human; settings: TSAHC at given concentrations
# Procedure: (§2) Arrows indicate the overlapping nuclei of cells undergoing cell division. […] In addition, in order to measure the growth rates of the cells, 5×10^4 cells were plated onto 6-well plates and counted every 12 hrs. The results are expressed as a graph. […] This was observed even at a low cell density. That is, among cells at a low density, TM4SF5-expressing cells proliferated through cell division, during which two nuclei overlapped each other.
# [5] = tested on: SNU449 Cp cells; test: Cell growth over time of TM4SF5-null cells (FIG. 43, left); format: cell-based, human; settings: TSAHC at given concentrations
# Procedure: as §2
# [6] = tested on: SNU449Tp cells; test: BrdU immunofluorescent staining, S-phase progression (FIG. 44); format: cell-based, human; settings: 20 μM, BrdU for 24 hrs
# Procedure: (§3) When cells were transfected with given specific genes or infected with various viruses, they were used after being cultured for a given period of time. Cells treated with 10 mM lysophosphatidic acid (LPA) were used 1 hour after being attached to cover glasses. Immunofluorescent staining was carried out by preparing a slide for fluorescent analysis through incubation with a primary antibody against a target protein, washing out unbound antibody molecules, incubation with a fluorescein-conjugated secondary antibody and washing out unbound antibody molecules, and actin filament staininh was carried out with rhodamine-conjugated phalloidin. Antibodies used included antibodies against E-cadherin, β-catenin, FLAG, 4′-6-diamidino-2-phenylindole (DAPI), 5-brorno-2′-deoxy-uridine (BrdU), p27^kip1, ZO1 (zonula occludens-1), and the like. Immunofluorescent stained cover glasses were placed on slides and observed under a fluorescence microscope or a confocal laser scanning microscope.
# [7] = tested on: SNU449Tp cells; test: Immunofluorescent staining for E-cadherin and β-catenin, cell-cell contact (FIG. 45); format: cell-based, human; settings: 20 μM
# Procedure: as §3
# [8] = tested on: p27^kip1, pS^10p27^kip1, pY^577FAK and α-SMA; test: Western blotting for TM4SF5-mediated protein expression (FIG. 46); format: cell-based, human
# Procedure: Cell lysates, obtained under various experimental conditions, were prepared using RIPA buffer after cells under various conditions were washed with PBS. In special cases, employed cells were transfected with given expression vectors or infected with an adenovirus expressing an shRNA to TM4SF5 or a siRNA to p27^kip1. In addition, cells treated with 10 μM of cycloheximide for a given period of time were used. For such cell lysates, protein was quantified, and the same amounts of protein were used. Western blotting was performed using antibodies to phospho-Y^577FAK, phospho-Y^416Src, c-Src, RhoA, p120^ctn, β-catenin, pS^10p27^kip1, FAK, E-cadherin, ZO1, Rac1, p190RhoGAP, p27^kip1, GRAF, hKIS, desmoplakin, α-tubulin, α-catenin, and α-smooth muscle actin (α-SMA).
# [9] = tested on: cytosolic p27^kip1; test: Immunofluorescent staining for p27^kip1 (FIG. 47); format: cell-based, human; settings: 449Tp cells
# Procedure: as §3
# [10] = tested on: TM4SF5-expressing cells; test: Immunostaining for DNA and the actin cytoskeleton, cell shape (FIG. 49); format: cell-based, human
# Procedure: as §3
# [11] = target: T1, TM4SF5 (Homo sapiens, UniProt O14894); test: Western blotting of lysates treated with PNGase F and Endo H (FIG. 50); format: cell-based
# T1 construct: expressed in transfected cells; host or cells: SNU449 hepatocarcinoma cells stably expressing TM4SF5 (the embodiment)
# T1 sequence (O14894 1-197): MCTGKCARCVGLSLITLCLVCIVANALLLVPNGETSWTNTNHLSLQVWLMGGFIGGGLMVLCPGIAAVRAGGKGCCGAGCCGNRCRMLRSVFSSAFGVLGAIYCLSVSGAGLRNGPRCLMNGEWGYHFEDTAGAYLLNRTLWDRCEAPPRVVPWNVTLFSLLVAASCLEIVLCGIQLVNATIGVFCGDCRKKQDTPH
# [12] = tested on: cells endogenously expressing TM4SF5; test: Growth/proliferation of cells endogenously expressing TM4SF5 (FIG. 51); format: cell-based
# [13] = tested on: SNU449Tp cells; test: Invasion into collagen gel, microcarrier beads (FIG. 66); format: cell-based, human; settings: 20 μM, 18 hrs
# Procedure: Cell invasiveness was analyzed using Cytodex-3 microcarriers. SNU449 Cp and SNU449Tp cells were grown on microcarrier beads in an attached state, and cultured in a collagen gel matrix, including a serum-containing medium at 37° C.
# SNU449 Cp cells and SNU449Tp cells were allowed to attach to microcarrier beads, and cultured in the presence of 20 μM of TSAHC for 18 hrs. Bead-cells were cultured in a collagen gel matrix, including a serum-containing medium, and observed for invasion into the collagen gel at given time points.
smiles,measurement,setting,value
"Cc1ccc(S(=O)(=O)Nc2ccc(C(=O)/C=C/c3ccc(O)cc3)cc2)cc1 [Compound 1, 4′-(p-toluenesulfonylamino)-4-hydroxychalcone]",IC50,[1],35 mg/L
same,IC50,[2],38 mg/L
same,IC50,[3],37 mg/L
same,growth over time of TM4SF5-expressing cells,[4],reduced linear growth over time in a manner dependent on TSAHC concentrations
same,effect on TM4SF5-null cells,[5],did not affect TM4SF5-null cells
same,S-phase progression,[6],inhibited S-phase progression
same,cell-cell contact,[7],restored cell-cell contact
same,"expression levels of p27^kip1, pS^10p27^kip1, pY^577FAK and α-SMA",[8],"effectively reduce TM4SF5-mediated high expression levels of p27^kip1, pS^10p27^kip1, pY^577FAK and α-SMA"
same,cytosolic p27^kip1 levels,[9],decrease in cytosolic p27^kip1 levels
same,cell shape,[10],returned the elongated cell shape to the same polygonal shape as that of TM4SF5-null control cells
same,sensitivity of N-linked glycosylated region of TM4SF5 to PNGase F,[11],increase the sensitivity of an N-linked glycosylated region of TM4SF5 to PNGase F
same,growth or proliferation of cells endogenously expressing TM4SF5,[12],inhibited the growth or proliferation of cells endogenously expressing TM4SF5
same,TM4SF5-mediated cell invasion into collagen gel,[13],inhibit TM4SF5-mediated cell invasion into collagen gel
